{
  "source": "patent EP4617278A1",
  "about": "“NUCLEOTIDE ANALOG, AND COMPOSITION AND USE THEREOF” (priority 2022, dated 2024)",
  "data": [
    {"test_system": "RSV A2 virus", "test": "RSV CPE assay", "settings": "human respiratory syncytial virus, HEp-2, 120 h, read-out: RSV A2 (Hep-2 cell) EC50", "units": {"EC50": "nM"}, "values": [
      {"molecule": "CC(C)(C)C(=O)O[C@H]1[C@@H](OC(=O)C(C)(C)C)[C@](C#N)(c2ccc3c(N)ncnn23)O[C@@H]1CO[P@@](=O)(N[C@@H](CC(=O)OC1CCC1)C(=O)OC1CCC1)Oc1ccccc1", "note": "[Compound 57b, (2R,3R,4R,5R)-2-(4-aminopyrrolo[2,1-f][1,2,4]triazin-7-yl)-2-cyano-5-((((S)-(((S)-1,4-dicyclobutoxy-1,4-dioxobutan-2-yl)amino)(phenoxy)phosphoryl)oxy)methyl)tetrahydrofuran-3,4-diyl bis(2,2-dimethylpropionate)]", "EC50": "200 to 500"},
      {"molecule": "CC(C)(C)C(=O)O[C@H]1[C@@H](OC(=O)C(C)(C)C)[C@](C#N)(c2ccc3c(N)ncnn23)O[C@@H]1CO[P@](=O)(N[C@H](C=O)CC(=O)OC1(C2CCCC2)CCCC1)Oc1ccccc1", "note": "[Compound 61a, (2R,3R,4R,5R)-2-(4-aminopyrrolo[2,1-f][1,2,4]triazin-7-yl)-2-cyano-5-((((R)-(((S)-1,4-bicyclopentyloxy-1,4-dioxobutan-2-yl)amino)(phenoxy)phosphoryl)oxy)methyl)tetrahydrofuran-3,4-diyl bis(2,2-dimethylpropionate)]", "EC50": "> 1000"},
      {"molecule": "CC(C)(C)C(=O)O[C@H]1[C@@H](OC(=O)C(C)(C)C)[C@](C#N)(c2ccc3c(N)ncnn23)O[C@@H]1CO[P@@](=O)(N[C@H](C=O)CC(=O)OC1(C2CCCC2)CCCC1)Oc1ccccc1", "note": "[Compound 61b, (2R,3R,4R,5R)-2-(4-aminopyrrolo[2,1-f][1,2,4]triazin-7-yl)-2-cyano-5-((((S)-(((S)-1,4-bicyclopentyloxy-1,4-dioxobutan-2-yl)amino)(phenoxy)phosphoryl)oxy)methyl)tetrahydrofuran-3,4-diyl bis(2,2-dimethylpropionate)]", "EC50": "500 to 1000"},
      {"molecule": "CCC(CC)COC(=O)C[C@H](N[P@@](=O)(OC[C@H]1O[C@@](C#N)(c2ccc3c(N)ncnn23)[C@H](OC(=O)C(C)C)[C@@H]1OC(=O)C(C)C)Oc1ccccc1)C(=O)OCC(CC)CC", "note": "[Compound 62a, (2R,3R,4R,5R)-2-(4-aminopyrrolo[2,1-f][1,2,4]triazin-7-yl)-2-cyano-5-((((R)-(((S)-1,4-bis(2-ethylbutoxy)-1,4-dioxobutan-2-yl)amino)(phenoxy)phosphoryl)oxy)methyl)tetrahydrofuran-3,4-diyl bis(2-methylpropionate)]", "EC50": "200 to 500"},
      {"molecule": "CCC(CC)COC(=O)C[C@H](N[P@](=O)(OC[C@H]1O[C@@](C#N)(c2ccc3c(N)ncnn23)[C@H](OC(=O)C(C)C)[C@@H]1OC(=O)C(C)C)Oc1ccccc1)C(=O)OCC(CC)CC", "note": "[Compound 62b, (2R,3R,4R,5R)-2-(4-aminopyrrolo[2,1-f][1,2,4]triazin-7-yl)-2-cyano-5-((((S)-(((S)-1,4-bis(2-ethylbutoxy)-1,4-dioxobutan-2-yl)amino)(phenoxy)phosphoryl)oxy)methyl)tetrahydrofuran-3,4-diyl bis(2-methylpropionate)]", "EC50": "< 100"},
      {"molecule": "CC(C)C(=O)O[C@H]1[C@@H](OC(=O)C(C)C)[C@](C#N)(c2ccc3c(N)ncnn23)O[C@@H]1CO[P@@](=O)(N[C@@H](Cc1ccccc1)C(=O)OC1CCC1)Oc1ccccc1", "note": "[Compound 63b, (2R,3R,4R,5R)-2-(4-aminopyrrolo[2,1-f][1,2,4]triazin-7-yl)-2-cyano-5-((((S)-(((S)-1-cyclobutoxy-1-oxo-3-phenylpropan-2-yl)amino)(phenoxy)phosphoryl)oxy)methyl)tetrahydrofuran-3,4-diyl bis(2-methylpropionate)]", "EC50": "< 100"},
      {"molecule": "COC(C)(C)COC(=O)[C@H](Cc1ccccc1)N[P@@](=O)(OC[C@H]1O[C@@](C#N)(c2ccc3c(N)ncnn23)[C@H](OC(=O)C(C)C)[C@@H]1OC(=O)C(C)C)Oc1ccccc1", "note": "[Compound 64a, (2R,3R,4R,5R)-2-(4-aminopyrrolo[2,1-f][1,2,4]triazin-7-yl)-2-cyano-5-((((R)-(((S)-1-(2-methoxy-2-methylpropoxy)-1-oxo-3-phenylpropan-2-yl)amino)(phenoxy)phosphoryl)oxy)methyl)tetrahydrofuran-3,4-diyl bis(2-methylpropionate)]", "EC50": "100 to 200"},
      {"molecule": "COC(C)(C)COC(=O)[C@H](Cc1ccccc1)N[P@](=O)(OC[C@H]1O[C@@](C#N)(c2ccc3c(N)ncnn23)[C@H](OC(=O)C(C)C)[C@@H]1OC(=O)C(C)C)Oc1ccccc1", "note": "[Compound 64b, (2R,3R,4R,5R)-2-(4-aminopyrrolo[2,1-f][1,2,4]triazin-7-yl)-2-cyano-5-((((S)-(((S)-1-(2-methoxy-2-methylpropoxy)-1-oxo-3-phenylpropan-2-yl)amino)(phenoxy)phosphoryl)oxy)methyl)tetrahydrofuran-3,4-diyl bis(2-methylpropionate)]", "EC50": "< 100"}
    ]},
    {"test_system": "RSV A2 virus", "test": "RSV CPE assay", "settings": "read-out: RSV A2 (Hep-2 cell) EC50; HEp-2 cells, RSV A2 virus, 5 days, CCK8", "units": {"EC50": "nM"}, "values": [
      {"molecule": "CC(C)C(=O)O[C@H]1[C@@H](OC(=O)C(C)C)[C@](C#N)(c2ccc3c(N)ncnn23)O[C@@H]1CO[P@](=O)(N[C@@H](Cc1ccccc1)C(=O)OC1CCC1)Oc1ccccc1", "note": "[Compound 63a]", "EC50": "200 to 500"},
      {"molecule": "(2R,3R,4R,5R)-2-(4-aminopyrrolo[2,1-f][1,2,4]triazin-7-yl)-2-cyano-5-((((R)-(((S)-1,4-bicyclopentyloxy-1,4-dioxobutan-2-yl)amino)(phenoxy)phosphoryl)oxy)methyl)tetrahydrofuran-3,4-diyl diacetate [Compound 58a]", "EC50": "200 to 500"},
      {"molecule": "(2R,3R,4R,5R)-2-(4-aminopyrrolo[2,1-f][1,2,4]triazin-7-yl)-2-cyano-5-((((R)-(((S)-1,4-bicyclopentyloxy-1,4-dioxobutan-2-yl)amino)(phenoxy)phosphoryl)oxy)methyl)tetrahydrofuran-3,4-diyl dipropionate [Compound 59a]", "EC50": "200 to 500"},
      {"molecule": "(2R,3R,4R,5R)-2-(4-aminopyrrolo[2,1-f][1,2,4]triazin-7-yl)-2-cyano-5-((((R)-(((S)-1,4-dicyclobutoxy-1,4-dioxobutan-2-yl)amino)(phenoxy)phosphoryl)oxy)methyl)tetrahydrofuran-3,4-diyl diacetate [Compound 55a]", "EC50": "100 to 200"},
      {"molecule": "(2R,3R,4R,5R)-2-(4-aminopyrrolo[2,1-f][1,2,4]triazin-7-yl)-2-cyano-5-((((R)-(((S)-1,4-dicyclobutoxy-1,4-dioxobutan-2-yl)amino)(phenoxy)phosphoryl)oxy)methyl)tetrahydrofuran-3,4-diyl dipropionate [Compound 56a]", "EC50": "200 to 500"},
      {"molecule": "(2R,3R,4R,5R)-2-(4-aminopyrrolo[2,1-f][1,2,4]triazin-7-yl)-2-cyano-5-((((R)-(((S)-1-(2-ethylbutoxy)-1-oxopropan-2-yl)amino)(((isopropoxycarbonyl)oxy)methoxy)phosphoryl)oxy)methyl)tetrahydrofuran-3,4-diyl diacetate [Compound 5a]", "EC50": "200 to 500"},
      {"molecule": "(2R,3R,4R,5R)-2-(4-aminopyrrolo[2,1-f][1,2,4]triazin-7-yl)-2-cyano-5-((((R)-(((S)-1-isopropoxy-1-oxopropan-2-yl)amino)(((isopropoxycarbonyl)oxy)methoxy)phosphoryl)oxy)methyl)tetrahydrofuran-3,4-diyl diacetate [Compound 1a]", "EC50": "100 to 200"},
      {"molecule": "(2R,3R,4R,5R)-2-(4-aminopyrrolo[2,1-f][1,2,4]triazin-7-yl)-2-cyano-5-((((S)-(((S)-1,4-bicyclopentyloxy-1,4-dioxobutan-2-yl)amino)(phenoxy)phosphoryl)oxy)methyl)tetrahydrofuran-3,4-diyl diacetate [Compound 58b]", "EC50": "< 100"},
      {"molecule": "(2R,3R,4R,5R)-2-(4-aminopyrrolo[2,1-f][1,2,4]triazin-7-yl)-2-cyano-5-((((S)-(((S)-1,4-bicyclopentyloxy-1,4-dioxobutan-2-yl)amino)(phenoxy)phosphoryl)oxy)methyl)tetrahydrofuran-3,4-diyl dipropionate [Compound 59b]", "EC50": "< 100"},
      {"molecule": "(2R,3R,4R,5R)-2-(4-aminopyrrolo[2,1-f][1,2,4]triazin-7-yl)-2-cyano-5-((((S)-(((S)-1,4-dicyclobutoxy-1,4-dioxobutan-2-yl)amino)(phenoxy)phosphoryl)oxy)methyl)tetrahydrofuran-3,4-diyl diacetate [Compound 55b]", "EC50": "100 to 200"},
      {"molecule": "(2R,3R,4R,5R)-2-(4-aminopyrrolo[2,1-f][1,2,4]triazin-7-yl)-2-cyano-5-((((S)-(((S)-1,4-dicyclobutoxy-1,4-dioxobutan-2-yl)amino)(phenoxy)phosphoryl)oxy)methyl)tetrahydrofuran-3,4-diyl dipropionate [Compound 56b]", "EC50": "100 to 200"},
      {"molecule": "(2R,3R,4R,5R)-2-(4-aminopyrrolo[2,1-f][1,2,4]triazin-7-yl)-2-cyano-5-((((S)-(((S)-1-(2-ethylbutoxy)-1-oxopropan-2-yl)amino)(((isopropoxycarbonyl)oxy)methoxy)phosphoryl)oxy)methyl)tetrahydrofuran-3,4-diyl diacetate [Compound 5b]", "EC50": "100 to 200"},
      {"molecule": "(2R,3R,4R,5R)-2-(4-aminopyrrolo[2,1-f][1,2,4]triazin-7-yl)-2-cyano-5-((((S)-(((S)-1-isopropoxy-1-oxopropan-2-yl)amino)(((isopropoxycarbonyl)oxy)methoxy)phosphoryl)oxy)methyl)tetrahydrofuran-3,4-diyl diacetate [Compound 1b]", "EC50": "100 to 200"},
      {"molecule": "(2R,3R,4R,5R)-2-(4-aminopyrrolo[2,1-f][1,2,4]triazin-7-yl)-5-((((bis(((isopropoxycarbonyl)oxy)methoxy))phosphoryl)oxy)methyl)-2-cyanotetrahydrofuran-3,4-diyldiisopropyl bis(carbonate) [Compound 28]", "EC50": "> 1000"}
    ]}
  ]
}
